Measured values as given in patent US4027039A (priority 1975, dated 1977).
Values joined by “and” are separate entries in the source; they are usually repeats but may differ in a detail not shown here. Equal values may be shown once. “Also recorded” adds a separate entry of the source. Where a name gives a salt, the structure may show the parent alone. Read-outs that look alike come from different tables or passages of the source.

Assays:
viral infections = assay: Antiviral screening in animals, general statements; conditions: mouse, in vivo
Influenza PR 8 virus = assay: Influenza PR 8 in mice, oral; schedule by table; late read day 6 (Table 37), 7 (33, 36), 8 (32, 35, 47), 10 (38); control fraction 18/20 (Table 32), 19/20 (Table 35), else 100%; assay type: in vivo, mouse
[1] = tested on: Influenza, Ann Arbor virus; assay: Influenza Ann Arbor in mice, subcutaneous; late read day 9 (Table 11), 7 (Tables 12, 14), 5 (Table 13); assay type: in vivo, mouse
[2] = tested on: Influenza, Ann Arbor virus; assay: Influenza Ann Arbor in mice, oral; schedule by table; late read day 5 (Tables 15, 25, 29, 30), 6 (18, 20, 22, 23, 26, 27, 28, 54), 7 (14, 19, 21, 24, 53, 56), 8 (16, 17, 51), 9 (11, 55); assay type: in vivo, mouse
Vaccinia IHD virus = assay type: in vivo, mouse
Neurovaccinia virus = assay: Neurovaccinia in mice; conditions: intraperitoneal
Vaccinia virus = assay type: in vivo, rabbit; conditions: rabbit, in vivo
Columbia SK Polio virus = assay type: in vivo, mouse; conditions: mouse, in vivo
[3] = tested on: Influenza B Massachusetts virus; assay: Influenza B Mass. in mice, oral; late read day 5 (Table 39), 7 (Table 40), 11 (Tables 61, 65); control fraction 16/20 (Table 61), else 100%; assay type: in vivo, mouse
Protocol: A portion of a commercially available sample of amantadine was recrystallized from isopropanol. The activity of the material against Influenza B Mass. was tested for the sample as obtained, the recrystallized portion, and the mother liquor obtained from recrystallizing the portion.

[4] = tested on: Influenza B Maryland virus; assay: Influenza B Maryland in mice, oral; assay type: in vivo, mouse

NN [hydrazine, hydrate]
activity in words (viral infections): active | No. animals surviving after 6-10 days (Influenza PR 8 virus; total dose 5 μg): 1 | No. animals surviving when 100% (or given fraction) of controls are dead (Influenza PR 8 virus; total dose 5 μg): 0 | Survivors (Influenza PR 8 virus; total dose 5 μg): 0 | No. animals surviving after 6-10 days (Influenza PR 8 virus; total dose 50 μg): 1 | No. animals surviving when 100% (or given fraction) of controls are dead (Influenza PR 8 virus; total dose 50 μg): 0 | Survivors (Influenza PR 8 virus; total dose 50 μg): 0 | No. animals surviving after 6-10 days (Influenza PR 8 virus; total dose .000005 μg): 4 | No. animals surviving when 100% (or given fraction) of controls are dead (Influenza PR 8 virus; total dose .000005 μg, hydrate): 4 | Survivors (Influenza PR 8 virus; total dose .0005 μg, hydrate): 1 | No. animals surviving when 100% (or given fraction) of controls are dead (Influenza PR 8 virus; total dose .5 μg): 1 | Survivors (Influenza PR 8 virus; total dose .5 μg): 1 | No. animals surviving after 6-10 days (Influenza PR 8 virus; total dose .5 μg, hydrate): 1 | No. animals surviving after 5-9 days ([1]; total dose 5 μg): 6 | Survivors ([1]; total dose 5 μg, hydrate): 3 | No. animals surviving after 5-9 days ([1]; total dose 50 μg, hydrate): 7 and 4 | Survivors ([1]; total dose 500 μg): 0 | No. animals surviving after 5-9 days ([1]; total dose 500 μg, hydrate): 6 and 3 | No. animals surviving after 5-9 days ([1]; total dose .00005 μg): 1 | Survivors ([1]; total dose .00005 μg): 0 | No. animals surviving after 5-9 days ([1]; total dose .0005 μg, hydrate): 5 and 7 | No. animals surviving after 5-9 days ([1]; total dose .005 μg, hydrate): 3 and 4 | No. animals surviving after 5-9 days ([1]; total dose .05 μg, hydrate): 4 and 6 | No. animals surviving after 5-9 days ([1]; total dose .5 μg, hydrate): 7 and 5 | No. animals surviving after 5-9 days ([2]; total dose 5 μg): 4 | Survivors ([2]; total dose 5 μg): 0 | No. animals surviving after 5-9 days ([2]; total dose 50 μg): 4 | Survivors ([2]; total dose 50 μg): 0 | No. animals surviving after 5-9 days ([2]; total dose 500 μg): 5 | Survivors ([2]; total dose 500 μg): 0 | No. animals surviving after 5-9 days ([2]; total dose .00005 μg): 6 | Survivors ([2]; total dose .00005 μg): 0 | No. animals surviving after 5-9 days ([2]; total dose .0005 μg): 6 | Survivors ([2]; total dose .0005 μg): 0 | No. animals surviving after 5-9 days ([2]; total dose .005 μg): 3 | Survivors ([2]; total dose .005 μg): 0 | No. animals surviving after 5-9 days ([2]; total dose .05 μg): 3 | Survivors ([2]; total dose .05 μg): 1 | No. animals surviving after 5-9 days ([2]; total dose .5 μg): 6 | Survivors ([2]; total dose .5 μg): 0

NNC(N)=O [semicarbazide, hydrochloride]
activity in words (viral infections): effective | No. animals surviving after 6-9 days (Herpes virus; total dose 5 μg, hydrochloride): 5 | Statistical Significance of Tail Lesions (Vaccinia IHD virus; 10 ng, day 6): < .01 | Statistical Significance of Tail Lesions (Vaccinia IHD virus; 10 ng, day 11): < .05 | Statistical Significance of Tail Lesions (Vaccinia IHD virus; 10 ng, day 12): < .05 | Statistical Significance of Tail Lesions (Vaccinia IHD virus; 10 ng, day 17): < .05 | Statistical Significance of Tail Lesions (Vaccinia IHD virus; 1 μg, day 6): < .01 | Statistical Significance of Tail Lesions (Vaccinia IHD virus; 1 μg, day 8): < .01 | Statistical Significance of Tail Lesions (Vaccinia IHD virus; 1 μg, day 10): < .01 | Statistical Significance of Tail Lesions (Vaccinia IHD virus; 1 μg, day 11): < .01 | Statistical Significance of Tail Lesions (Vaccinia IHD virus; 1 μg, day 12): < .01 | Statistical Significance of Tail Lesions (Vaccinia IHD virus; 1 μg, day 14): < .01 | Statistical Significance of Tail Lesions (Vaccinia IHD virus; 1 μg, day 17): < .01 | Statistical Significance of Tail Lesions (Vaccinia IHD virus; 1 μg, day 21): < .05 | Statistical Significance of Tail Lesions (Vaccinia IHD virus; 10 [μg], day 7): < .01 | Statistical Significance of Tail Lesions (Vaccinia IHD virus; 10 [μg], day 10): < .05 | Statistical Significance of Tail Lesions (Vaccinia IHD virus; 10 [μg], day 11): < .01 | Statistical Significance of Tail Lesions (Vaccinia IHD virus; 10 [μg], day 12): < .01 | Statistical Significance of Tail Lesions (Vaccinia IHD virus; 10 [μg], day 14): < .01 | Statistical Significance of Tail Lesions (Vaccinia IHD virus; 10 [μg], day 17): < .01 | Statistical Significance of Tail Lesions (Vaccinia IHD virus; 10 [μg], day 21): < .05 | Statistical Significance of Tail Lesions (Vaccinia IHD virus; 100 [ng], day 7): < .05 | Statistical Significance of Tail Lesions (Vaccinia IHD virus; 100 [ng], day 11): < .05 | Statistical Significance of Tail Lesions (Vaccinia IHD virus; 100 [ng], day 12): < .05 | Statistical Significance of Tail Lesions (Vaccinia IHD virus; 100 [ng], day 14): < .05 | Statistical Significance of Tail Lesions (Vaccinia IHD virus; 100 [ng], day 17): < .01 | Statistical Significance of Tail Lesions (Vaccinia IHD virus; 100 [ng], day 21): < .01 | No. animals surviving after 6 days (Neurovaccinia virus; total dose .0075 μg): 1/2 | Survivors (Neurovaccinia virus; total dose .75 μg): 0

CCC(C)=NNC(N)=S [thiosemicarbazone]
effect on pox formation (Vaccinia virus): very striking effects of the drug on the pox formation; also recorded: highly significant diminution of pox formation | instances of statistically significant geometric mean survival time (Columbia SK Polio virus): two

NNC(=O)c1ccncc1 [Isoniazid, isoniazid, reference compound]
activity in words (viral infections): active | maximum protective effect, treated animals survived (viral infections): 30% | No. animals surviving after 6-9 days (Herpes virus; total dose .0000005 μg): 4 | No. animals surviving when 100% (or given fraction) of controls are dead (Herpes virus; total dose .0000005 μg): 1 | Survivors (Herpes virus; total dose .0000005 μg): 1 | No. animals surviving when 100% (or given fraction) of controls are dead (Herpes virus; total dose .005 μg): 1 | No. animals surviving after 6-9 days (Herpes virus; total dose .05 μg): 4 | No. animals surviving when 100% (or given fraction) of controls are dead (Herpes virus; total dose .05 μg): 1 | Survivors (Herpes virus; total dose .05 μg): 1 | No. animals surviving after 6-10 days (Influenza PR 8 virus; total dose 5 μg): 5 | No. animals surviving after 6-10 days (Influenza PR 8 virus; total dose .0000005 μg): 1 | No. animals surviving when 100% (or given fraction) of controls are dead (Influenza PR 8 virus; total dose .0000005 μg): 0 | Survivors (Influenza PR 8 virus; total dose .0000005 μg): 0 | No. animals surviving when 100% (or given fraction) of controls are dead (Influenza PR 8 virus; total dose .000005 μg): 1 | Survivors (Influenza PR 8 virus; total dose .000005 μg): 0 | No. animals surviving after 6-10 days (Influenza PR 8 virus; total dose .00005 μg): 0 | No. animals surviving when 100% (or given fraction) of controls are dead (Influenza PR 8 virus; total dose .00005 μg): 0 | Survivors (Influenza PR 8 virus; total dose .00005 μg): 0 | No. animals surviving after 6-10 days (Influenza PR 8 virus; total dose .0005 μg): 0 | No. animals surviving when 100% (or given fraction) of controls are dead (Influenza PR 8 virus; total dose .0005 μg): 0 | Survivors (Influenza PR 8 virus; total dose .0005 μg): 0 | No. animals surviving after 6-10 days (Influenza PR 8 virus; total dose .005 μg): 1 | No. animals surviving when 100% (or given fraction) of controls are dead (Influenza PR 8 virus; total dose .005 μg): 1 | Survivors (Influenza PR 8 virus; total dose .005 μg): 1 | No. animals surviving when 100% (or given fraction) of controls are dead (Influenza PR 8 virus; total dose .05 μg): 0 | Survivors (Influenza PR 8 virus; total dose .05 μg): 1 | No. animals surviving when 100% (or given fraction) of controls are dead (Influenza PR 8 virus; total dose .5 μg): 1 | Survivors (Influenza PR 8 virus; total dose .5 μg): 1 | No. animals surviving after 5 days (Table 61: 11 days) ([3]; total dose .000005 μg (5 pg)): 3 | No. animals surviving when 100% (Table 61: 16/20) of controls are dead ([3]; total dose .000005 μg (5 pg)): 0 | Survivors ([3]; total dose .000005 μg (5 pg)): 0 | No. animals surviving after 5 days (Table 61: 11 days) ([3]; total dose .00005 μg (50 pg)): 2 | No. animals surviving when 100% (Table 61: 16/20) of controls are dead ([3]; total dose .00005 μg (50 pg)): 1 | Survivors ([3]; total dose .00005 μg (50 pg)): 0 | No. animals surviving after 5 days (Table 61: 11 days) ([3]; total dose .0005 μg (500 pg)): 3 | No. animals surviving when 100% (Table 61: 16/20) of controls are dead ([3]; total dose .0005 μg (500 pg)): 2 | Survivors ([3]; total dose .0005 μg (500 pg)): 0 | No. animals surviving after 5 days (Table 61: 11 days) ([3]; total dose .005 μg (5 ng)): 5 | No. animals surviving when 100% (Table 61: 16/20) of controls are dead ([3]; total dose .005 μg (5 ng)): 1 | Survivors ([3]; total dose .005 μg (5 ng)): 0 | No. animals surviving after 5 days (Table 61: 11 days) ([3]; total dose .05 μg (50 ng)): 3 | No. animals surviving when 100% (Table 61: 16/20) of controls are dead ([3]; total dose .05 μg (50 ng)): 1 | Survivors ([3]; total dose .05 μg (50 ng)): 0 | No. animals surviving after 5 days (Table 61: 11 days) ([3]; total dose .5 μg (500 ng)): 3 | No. animals surviving when 100% (Table 61: 16/20) of controls are dead ([3]; total dose .5 μg (500 ng)): 0 | Survivors ([3]; total dose .5 μg (500 ng)): 0

CN1C(=O)/C(=N\NC(N)=S)c2ccccc21 [Methisazone, 1-methylindole-2,3-dione, 3-thiosemicarbazone, reference compound]
activity in words (viral infections): active against pox virus infections of mice; also recorded: activity | No. animals surviving after 6-9 days (Herpes virus; total dose .0000005 μg): 4 and 3 | No. animals surviving after 6-9 days (Herpes virus; total dose .05 μg): 1 | No. animals surviving when 100% (or given fraction) of controls are dead (Herpes virus; total dose .05 μg): 0 | Survivors (Herpes virus; total dose .05 μg): 0 | activity in words ([4]; mouse, in vivo): active | No. animals surviving when 18/20 of controls are dead ([4]; total dose 6 ng): 4 | Survivors ([4]; total dose 6 ng): 2 | No. animals surviving when 18/20 of controls are dead ([4]; total dose 60 ng): 4 | Survivors ([4]; total dose 60 ng): 2 | No. animals surviving when 18/20 of controls are dead ([4]; total dose 600 ng): 2 | Survivors ([4]; total dose 600 ng): 2 | No. animals surviving when 18/20 of controls are dead ([4]; total dose 6 μg): 4 | Survivors ([4]; total dose 6 μg): 1 | No. animals surviving after 5-9 days ([2]; total dose 5 μg): 4 | Survivors ([2]; total dose 5 μg): 0 | No. animals surviving after 5-9 days ([2]; total dose 50 μg): 3 | Survivors ([2]; total dose 50 μg): 0 | No. animals surviving after 5-9 days ([2]; total dose .00005 μg): 6 | Survivors ([2]; total dose .00005 μg): 0 | No. animals surviving after 5-9 days ([2]; total dose .0005 μg): 5 | Survivors ([2]; total dose .0005 μg): 0 | No. animals surviving after 5-9 days ([2]; total dose .005 μg): 5 | Survivors ([2]; total dose .005 μg): 0 | No. animals surviving after 5-9 days ([2]; total dose .05 μg): 4 | Survivors ([2]; total dose .05 μg): 0 | No. animals surviving after 5-9 days ([2]; total dose .5 μg): 6 | Survivors ([2]; total dose .5 μg): 0
